Measurements taken from ChEMBL document CHEMBL5233229, “Recent advances in the development of ubiquitin-specific-processing protease 7 (USP7) inhibitors” (Eur J Med Chem, 2020).
“And” between values parts separate entries of the source, which are not always exact repeats. Identical values can stand only once.

target: T1, Ubiquitin carboxyl-terminal hydrolase 7 (Homo sapiens, UniProt Q93009); experiment: Inhibition of human USP7 using Ub-EKL as substrate
T1 sequence (Q93009 whole entry): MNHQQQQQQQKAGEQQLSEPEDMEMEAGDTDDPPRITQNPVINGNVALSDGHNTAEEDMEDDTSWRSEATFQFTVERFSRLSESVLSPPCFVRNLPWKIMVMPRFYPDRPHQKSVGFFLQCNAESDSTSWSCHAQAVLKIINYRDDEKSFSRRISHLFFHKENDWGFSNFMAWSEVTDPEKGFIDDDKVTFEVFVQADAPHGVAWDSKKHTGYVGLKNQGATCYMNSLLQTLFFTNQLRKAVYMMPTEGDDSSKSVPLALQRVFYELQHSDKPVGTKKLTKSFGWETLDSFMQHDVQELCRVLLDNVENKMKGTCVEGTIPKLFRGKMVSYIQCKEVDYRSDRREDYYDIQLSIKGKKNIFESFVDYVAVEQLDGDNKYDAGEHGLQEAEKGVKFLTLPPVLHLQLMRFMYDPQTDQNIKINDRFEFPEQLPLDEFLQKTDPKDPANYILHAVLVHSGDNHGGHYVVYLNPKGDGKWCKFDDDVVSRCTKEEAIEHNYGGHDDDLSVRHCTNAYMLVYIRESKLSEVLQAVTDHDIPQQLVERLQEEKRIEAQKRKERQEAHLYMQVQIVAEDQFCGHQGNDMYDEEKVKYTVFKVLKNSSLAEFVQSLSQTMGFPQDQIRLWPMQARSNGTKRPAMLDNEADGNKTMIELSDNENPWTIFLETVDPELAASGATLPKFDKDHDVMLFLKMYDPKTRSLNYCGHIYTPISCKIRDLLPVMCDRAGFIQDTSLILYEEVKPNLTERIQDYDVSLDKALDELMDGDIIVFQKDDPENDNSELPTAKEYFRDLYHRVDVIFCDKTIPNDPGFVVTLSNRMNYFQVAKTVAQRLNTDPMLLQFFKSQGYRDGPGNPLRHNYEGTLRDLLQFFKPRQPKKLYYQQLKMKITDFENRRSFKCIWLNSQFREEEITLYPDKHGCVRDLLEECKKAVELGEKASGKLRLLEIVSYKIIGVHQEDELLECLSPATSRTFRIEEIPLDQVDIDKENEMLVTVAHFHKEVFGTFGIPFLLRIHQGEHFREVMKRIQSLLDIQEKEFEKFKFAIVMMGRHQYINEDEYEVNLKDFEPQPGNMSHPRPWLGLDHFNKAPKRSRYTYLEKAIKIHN

Compound	EC50 [nM]
O=C(Nc1ccc2c(c1)S(=O)(=O)C=C2)c1cnc(Sc2ccncc2Cl)s1	5000
CN(C)CCCNC1CS(=O)(=O)c2cc(NC(=O)c3cnc(Sc4c(Cl)cncc4Cl)s3)ccc21 (stereo not drawn)	< 1000

Other lines, results leading:

EC50 [nM]	Compound
< 1000	O=C(Nc1ccc2c(c1)S(=O)(=O)C=C2)c1nnc(Sc2c(Cl)cncc2Br)s1
2000	O=C(Nc1ccc2c(c1)S(=O)(=O)C=C2)c1cnc(Sc2c(Cl)cncc2Cl)s1
< 1000	CN(C)CCOc1cccc(NC(=O)c2nnc(Sc3c(Cl)cncc3Cl)s2)c1
1000	O=C(Nc1cnc2ccccc2c1)c1nnc(Sc2c(Cl)cncc2Cl)s1
2000	CC1CS(=O)(=O)c2cc(NC(=O)c3cnc(Sc4c(Cl)cncc4Cl)s3)ccc21 (stereo not drawn)
< 1000	O=C(Nc1ccc2c(c1)S(=O)(=O)CC2NCCN1CCOCC1)c1nnc(Sc2c(Cl)cncc2Cl)s1 (stereo not drawn)
< 1000	O=C(Nc1ccc2c(c1)S(=O)(=O)C=C2)c1nnc(Sc2c(Cl)cncc2Cl)o1
< 1000	O=C(Nc1ccc(NCCCN2CCOCC2)cc1)c1nnc(Sc2c(Cl)cncc2Cl)s1
< 1000	O=C(Nc1ccc2c(c1)S(=O)(=O)CC2)c1nnc(Sc2c(Cl)cncc2Cl)s1
> 10000	CN(C)CCCOc1ccc(NC(=O)c2cnc(Sc3c(Cl)cncc3Cl)s2)cc1
2000	COCCOCCN(C(=O)c1nnc(Sc2c(Cl)cncc2Cl)s1)c1ccc2c(c1)S(=O)(=O)CC2
2000	Nc1ncc(Cl)c(Sc2nnc(C(=O)Nc3ccc4c(c3)S(=O)(=O)C=C4)s2)c1Cl
< 1000	CN(C)CCCNc1ccc(NC(=O)c2nnc(Sc3c(Cl)cncc3Cl)s2)cc1
< 1000	O=C(Nc1ccc2c(c1)S(=O)(=O)C=C2)c1nnc(Sc2c(Cl)cncc2Cl)s1
< 1000	CN(C)CC(O)COc1ccc(NC(=O)c2nnc(Sc3c(Cl)cncc3Cl)s2)cc1 (stereo not drawn)
< 1000	CNS(=O)(=O)c1ccc(NC(=O)c2nnc(Sc3c(Cl)cncc3Cl)s2)cc1
< 1000	CN(C)CCCOc1ccc(NC(=O)c2nnc(Sc3c(Cl)cncc3Cl)s2)cc1
< 1000	CN(C)CCNC1CS(=O)(=O)c2cc(NC(=O)c3nnc(Sc4c(Cl)cncc4Cl)s3)ccc21 (stereo not drawn)
1000	O=C(Nc1ccc2c(c1)C(=O)CC2)c1nnc(Sc2c(Cl)cncc2Cl)s1
1000	CC1CS(=O)(=O)c2cc(NC(=O)c3nnc(Sc4c(Cl)cncc4Cl)s3)ccc21 (stereo not drawn)

target: T1, Ubiquitin carboxyl-terminal hydrolase 7; experiment: Inhibition of human USP7 using Ub-AMC as substrate

IC50	Compound
420 nM	C[C@H](CC(=O)N1CCC(O)(Cn2cnc3cc(Cl)ccc3c2=O)CC1)c1ccccc1
7180 nM and 11000 nM	C[C@@H](CC(=O)N1CCC(O)(Cn2cnc3cc(NC(=O)CCN4CCN(C)CC4)ccc3c2=O)CC1)c1ccccc1
240 nM	CC(CC(=O)N1CCC(O)(Cn2cnc3cc(NC(=O)CCn4ccnc4)ccc3c2=O)CC1)c1ccccc1 (stereo not drawn)
1300 nM	CC(CC(=O)N1CCC(O)(Cn2cnc3cc(Cl)ccc3c2=O)CC1)c1ccccc1 (stereo not drawn)
560 nM	CC(CC(=O)N1CCC(O)(Cn2cnc3cc(NC(=O)CCN4CCN(C)CC4)ccc3c2=O)CC1)c1ccccc1 (stereo not drawn)
> 100000 nM	CC(=O)N1CCC(O)(Cn2cnc3cc(Cl)ccc3c2=O)CC1
> 100000 nM	O=C(CCc1ccccc1)N1CCC(O)(Cn2cnc3cc(Cl)ccc3c2=O)C1 (stereo not drawn)
190 nM	C[C@H](CC(=O)N1CCC(O)(Cn2cnc3cc(NC(=O)CCN4CCN(C)CC4)ccc3c2=O)CC1)c1ccccc1
> 100000 nM	O=C(Cc1ccccc1)N1CCC(O)(Cn2cnc3cc(Cl)ccc3c2=O)CC1
12000 nM	O=C(CCc1ccccc1)N1CCC(O)(Cn2cnc3cc(Cl)ccc3c2=O)CC1
130 nM	C[C@H](CC(=O)N1CCC(O)(Cn2cnc3cc(NC(=O)CCN(C)C)ccc3c2=O)CC1)c1ccccc1
40000 nM	C[C@@H](CC(=O)N1CCC(O)(Cn2cnc3cc(Cl)ccc3c2=O)CC1)c1ccccc1
350 nM	CC(CC(=O)N1CCC(O)(Cn2cnc3cc(NC(=O)CCN4CCCCC4)ccc3c2=O)CC1)c1ccccc1 (stereo not drawn)
> 100000 nM	N#CC1(Cn2cnc3cc(Cl)ccc3c2=O)CCN(C(=O)CCc2ccccc2)CC1
> 100000 nM	O=C(CCc1ccccc1)N1CCC(Cn2cnc3cc(Cl)ccc3c2=O)CC1
> 100000 nM	O=c1c2ccc(Cl)cc2ncn1CC1(O)CCN(CCCc2ccccc2)CC1
